US7557142B2, “Therapeutic use of methionine to reduce the toxicity of platinum-containing anti-tumor compounds” (Board of Trustees of Southern Illinois University, priority 1996, dated 2009)
“Also recorded” adds a separate entry of the source. Where a name gives a salt, the structure may show the parent alone.

Key:
[1] = parenteral administration in humans; Printen et al., 1979; cited from earlier work
[2] = test system: NHIK 3025 in vitro human uterine cervix carcinoma in situ cancer cells; conditions: methionine, presumably a racemic mixture; Melvik and Petterson, 1987; cited from earlier work
[3] = test system: rats; conditions: cited from earlier work; for CDDP nephroprotection: literature (Jones et al.; others)
[4] = literature; cited from earlier work
[5] = test system: male Wistar rats
Method: (§1) Complete data sets were obtained for five groups of five male Wistar rats (280-421 g). All animals were anesthetized with […] IM of Rompun cocktail (a solution containing 86.21 mg/ml ketamine and 2.76 mg/ml xylazine) prior to all injections and testing. Anesthesia was supplemented as needed with half doses throughout testing.

[6] = test system: Walker 256 carcinosarcoma; conditions: rat, in vivo; cited from earlier work
[7] = test system: patients; conditions: human, in vivo; cited from earlier work
[8] = test system: male Wistar rats; experiment: Scanning electron microscopy, outer hair cell count per cochlear turn; assay type: in vivo, rat; conditions: for outer hair cell findings, middle and basal turns: versus untreated control, 75, 150, 300 mg/kg D-Met prior to 16 mg/kg CDDP
Method: as §1
(§2) ABR data were analyzed using a three factor analysis of variance (ANOVA) with one between subject factor (groups) and two within subject factors (frequency and pre- vs. post-test). Each dependent variable was analyzed independently. Tests subsequent to the ANOVA were carried out in accordance with the Tukey HSD procedure. Weight loss and/or gastrointestinal protection was measured using the same type of statistical analysis as the ABR measures. SEM data were analyzed for each turn using a one way analysis of variance with Post-Hoc Tukey HSD analysis. The criterion for statistical significance for all measures was p≦0.01.

[9] = literature; cited from earlier work; remark: listed apart in the source
[10] = test system: male Wistar rats; experiment: Auditory Brainstem Testing (ABR) of auditory threshold, D-Met before CDDP; assay type: in vivo, rat
[11] = test system: male Wistar rats; remark: listed apart in the source
Method: as §1
Each animal's weight was measured in an Ohaus triple beam balance scale before administration of the anesthetic for the pretest and again before the post-test 3 days later.
as §2

[12] = test system: animals; conditions: literature, cited from earlier work
[13] = test system: patients; conditions: cited from earlier work
[14] = test system: hamsters; conditions: Church et al. (1995); cited from earlier work
[15] = 16 mg/kg CDDP alone (treated control)

CSCCC(N)C(=O)O (racemic) [DL-methionine]
plasma levels of isomers [1]: higher plasma levels of the D- isomer

CSCC[C@H](N)C(=O)O (racemic) [methionine]
effect of preadministration on CDDP cytotoxicity [2]: sensitized NHIK 3025 in vitro human uterine cervix carcinoma in situ cancer cells to CDDP cytotoxicity

CSc1ncccc1C(=O)O [2-(methylthio)nicotinic acid]
CDDP nephroprotection [3]: does not provide nephroprotection in rats

O=C(O)CCCC[C@@H]1SC[C@@H]2NC(=O)N[C@@H]21 [Biotin]
effect on CDDP anti-tumor action [4]: inhibits anti-tumor activity | CDDP nephroprotection [3]: good CDDP nephroprotection

N.N.[Cl][Pt][Cl] [CDDP, cis-diamminedichloroplatinum(II)]
animals surviving to the end of the study period [5, 15]: 5/10 | animals that did not survive to the end of the study period [5, 15]: 50% | time to complete redistribution after tumor uptake [6]: ≤ 15 min | patients with hearing loss having complete recovery [7]: one of 121 | outer hair cell findings, middle and basal turns [8]: significantly different findings from the untreated control group

C[C@H](CS)C(=O)N1CCC[C@H]1C(=O)O [Captropril]
CDDP nephroprotection [3]: protects against CDDP nephrotoxicity

CC1=C(C(=O)O)N2C(=O)[C@@H](NC(=O)[C@H](N)c3ccccc3)[C@H]2SC1 [Cephalexin]
prevention of CDDP kidney pathology ([3]; Jones et al., 1992): does not prevent kidney pathology | CDDP nephroprotection [3]: protects against CDDP-induced kidney dysfunction and weight loss | protection against CDDP-induced weight loss [9]: protects against CDDP-induced kidney dysfunction and weight loss

CSCC[C@@H](N)C(=O)O [D-Met, D-methionine]
animals with complete otoprotection as defined by no significant ABR threshold shift for any stimulus ([10]; 75 mg/kg D-Met i.p. 30 minutes prior to 16 mg/kg CDDP, ABR 3 days later): 2/5 | animals with complete otoprotection as defined by no significant ABR threshold shift for any stimulus ([10]; 150 mg/kg D-Met i.p. 30 minutes prior to 16 mg/kg CDDP, ABR 3 days later): 3/5 | animals with complete otoprotection for all stimulus conditions ([10]; 300 mg/kg D-Met i.p. 30 minutes prior to 16 mg/kg CDDP, ABR 3 days later): 5 animals | ABR thresholds compared with treated control group, all stimuli ([10]; any level of D-Met (75, 150, 300 mg/kg) prior to 16 mg/kg CDDP, p≦0.01): significantly lower ABR thresholds than the treated control group | alopecia: coat and hair loss versus control group animals ([5]; D-Met prior to 16 mg/kg CDDP): significantly less hair loss | neuroprotection: activity and coordination versus surviving treated controls ([5]; morning of the third day, D-Met prior to 16 mg/kg CDDP): noticeably more lively, active, and coordinated | weight loss compared with treated control group ([11]; 300 mg/kg D-Met prior to 16 mg/kg CDDP, 3 days): significantly less than that in the treated control group | CDDP-induced weight loss versus D-Met dose ([11]; 75, 150, 300 mg/kg D-Met prior to 16 mg/kg CDDP): diminished as D-Met dosing increased | CDDP nephroprotection [3]: highly effective CDDP nephroprotection | hair cell counts, apical turn ([8]; all groups, apical turn): essentially normal hair cell counts | outer hair cell findings, middle and basal turns [8]: only the treated control group showed significantly different findings

CCN(CC)C(=S)S [DDTC, diethyldithiocarbamate]
side effects of the protective agent [12]: can produce severe side effects

CCOC(=O)[C@@H](N)CS [Ethyl-L-cysteinate]
CDDP nephroprotection [3]: exacerbate CDDP nephrotoxicity

CSCC[C@H](N)C(N)=O [L-methioninamide]
effect on CDDP anti-tumor action [4]: impairs CDDP anti-tumor action | CDDP nephroprotection [3]: excellent CDDP nephroprotection

CC(S)C(=O)NCC(=O)O (stereo not shown) [N-(2-mercapto-propionyl)glycine]
CDDP nephroprotection [3]: exacerbate CDDP nephrotoxicity

O=S([O-])([O-])=S.[Na+].[Na+] [STS, sodium thiosulfate]
effect on CDDP anti-tumor action [4]: may reduce CDDP tumoricidal action; also recorded: reduces the latter's tumoricidal action | CDDP nephroprotection [3]: reduces CDDP nephrotoxicity | CDDP otoprotection ([12]; animals): good CDDP otoprotection | protection against CDDP-induced weight loss [9]: may exacerbate CDDP-induced weight loss and mortality

Nc1ccc(S(=O)(=O)Nc2nccs2)cc1 [Sulfathiazole]
CDDP nephroprotection [3]: provides protection against CDDP nephrotoxicity

NCCCNCCSP(=O)(O)O [WR2721]
effect on nausea and vomiting ([13]; Glover et al., 1987): does not ameliorate nausea and vomiting | CDDP nephroprotection ([13]; Mollman et al., 1988): excellent CDDP nephroprotection | patients with mild to severe hearing loss ([13]; WR2721 prior to CDDP, Glover et al. (1987)): 20 of 36 | incidence of significant hearing threshold shift ([13]; patients pretreated with WR2721 prior to CDDP, Rubin et al. (1995)): 45% | protection from CDDP ototoxicity or mortality [14]: no WR2721 protection from ototoxicity or mortality

CO[C@@]1(NC(=O)Cc2cccs2)C(=O)N2C(C(=O)O)=C(COC(N)=O)CS[C@@H]21 [cefoxitin]
CDDP nephroprotection [3]: does not provide nephroprotection | protection against CDDP-induced weight loss [9]: some protection against CDDP-induced weight loss

CC1(C)S[C@@H]2[C@H](NC(=O)Cc3ccccc3)C(=O)N2[C@H]1C(=O)[O-].[Na+] [sodium salt of penicillin G, penicillin G]
CDDP nephroprotection [3]: does not protect against CDDP nephrotoxicity or weight loss | protection against CDDP-induced weight loss [9]: does not protect against CDDP nephrotoxicity or weight loss

Cc1ncc(C[n+]2csc(CCO)c2C)c(N)n1 [thiamine-HCl]
CDDP nephroprotection [3]: does not protect against cisplatin nephrotoxicity or weight loss | protection against CDDP-induced weight loss [9]: does not protect against cisplatin nephrotoxicity or weight loss
